For experiment [1], the target named is Mitogen-activated protein kinase kinase kinase 11 (Homo sapiens) (UniProt Q16584). Kind of experiment: Selectivity interaction (LanthaScreen Eu Kinase Binding Assay) EUB0001632a MAP3K11. The settings on record: at 10 µM.
The target of experiment [2] is T1, Serine/threonine-protein kinase PLK4 (Homo sapiens) (UniProt O00444).
T1 sequence (whole entry): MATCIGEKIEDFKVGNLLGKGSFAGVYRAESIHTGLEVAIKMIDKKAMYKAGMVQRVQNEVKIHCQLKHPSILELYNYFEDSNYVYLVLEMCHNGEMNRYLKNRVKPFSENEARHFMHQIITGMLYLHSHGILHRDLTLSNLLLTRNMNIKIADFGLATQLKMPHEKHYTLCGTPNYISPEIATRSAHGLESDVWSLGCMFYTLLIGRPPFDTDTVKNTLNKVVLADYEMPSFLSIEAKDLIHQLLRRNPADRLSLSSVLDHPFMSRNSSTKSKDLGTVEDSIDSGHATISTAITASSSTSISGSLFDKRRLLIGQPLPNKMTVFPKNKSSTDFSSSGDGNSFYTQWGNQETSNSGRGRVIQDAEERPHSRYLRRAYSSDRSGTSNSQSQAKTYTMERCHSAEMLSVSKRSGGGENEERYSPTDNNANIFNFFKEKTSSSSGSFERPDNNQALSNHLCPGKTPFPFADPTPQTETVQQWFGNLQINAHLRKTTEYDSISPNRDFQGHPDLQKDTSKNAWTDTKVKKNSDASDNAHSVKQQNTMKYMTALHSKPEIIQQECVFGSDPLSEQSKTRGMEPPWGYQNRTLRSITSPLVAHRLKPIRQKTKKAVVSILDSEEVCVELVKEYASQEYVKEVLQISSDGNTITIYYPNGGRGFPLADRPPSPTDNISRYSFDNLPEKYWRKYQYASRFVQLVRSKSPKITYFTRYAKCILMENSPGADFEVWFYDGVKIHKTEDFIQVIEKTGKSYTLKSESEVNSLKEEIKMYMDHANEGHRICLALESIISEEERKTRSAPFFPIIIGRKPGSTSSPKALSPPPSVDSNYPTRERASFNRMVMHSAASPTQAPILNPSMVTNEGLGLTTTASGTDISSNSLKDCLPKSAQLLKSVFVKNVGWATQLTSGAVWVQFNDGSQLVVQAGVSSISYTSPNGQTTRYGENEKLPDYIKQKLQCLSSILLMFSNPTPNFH
Kind of experiment: Selectivity interaction (KinomeScan (DiscoverX)) EUB0001079a PLK4. The following applies: at 1 µM.

In experiment [3] the target is Cyclin-dependent kinase 7 (Homo sapiens, UniProt P50613). Kind of experiment: Selectivity interaction (ActivX KiNativ screen (kinase selectivity in THP-1 cell lysates)) EUB0000639a CDK7. The settings on record: lysate, at 5 µM. The format is subcellular.
Experiment [4] concerns the target Casein kinase I isoform delta (Homo sapiens, UniProt P48730). Nature of the experiment: Selectivity interaction (Millipore kinase profiler) EUB0000124b CSNK1D. The following applies: at 10 µM.
The target in experiment [5] is Ribosomal protein S6 kinase alpha-6 (Homo sapiens, UniProt Q9UK32). Nature of the experiment: Selectivity interaction (KinomeScan (DiscoverX)) EUB0000695a RPS6KA6. The settings on record: at 100 nM.
For experiment [6], the target named is T2, Ephrin type-B receptor 1 (Homo sapiens) (UniProt P54762).
T2 sequence (whole entry): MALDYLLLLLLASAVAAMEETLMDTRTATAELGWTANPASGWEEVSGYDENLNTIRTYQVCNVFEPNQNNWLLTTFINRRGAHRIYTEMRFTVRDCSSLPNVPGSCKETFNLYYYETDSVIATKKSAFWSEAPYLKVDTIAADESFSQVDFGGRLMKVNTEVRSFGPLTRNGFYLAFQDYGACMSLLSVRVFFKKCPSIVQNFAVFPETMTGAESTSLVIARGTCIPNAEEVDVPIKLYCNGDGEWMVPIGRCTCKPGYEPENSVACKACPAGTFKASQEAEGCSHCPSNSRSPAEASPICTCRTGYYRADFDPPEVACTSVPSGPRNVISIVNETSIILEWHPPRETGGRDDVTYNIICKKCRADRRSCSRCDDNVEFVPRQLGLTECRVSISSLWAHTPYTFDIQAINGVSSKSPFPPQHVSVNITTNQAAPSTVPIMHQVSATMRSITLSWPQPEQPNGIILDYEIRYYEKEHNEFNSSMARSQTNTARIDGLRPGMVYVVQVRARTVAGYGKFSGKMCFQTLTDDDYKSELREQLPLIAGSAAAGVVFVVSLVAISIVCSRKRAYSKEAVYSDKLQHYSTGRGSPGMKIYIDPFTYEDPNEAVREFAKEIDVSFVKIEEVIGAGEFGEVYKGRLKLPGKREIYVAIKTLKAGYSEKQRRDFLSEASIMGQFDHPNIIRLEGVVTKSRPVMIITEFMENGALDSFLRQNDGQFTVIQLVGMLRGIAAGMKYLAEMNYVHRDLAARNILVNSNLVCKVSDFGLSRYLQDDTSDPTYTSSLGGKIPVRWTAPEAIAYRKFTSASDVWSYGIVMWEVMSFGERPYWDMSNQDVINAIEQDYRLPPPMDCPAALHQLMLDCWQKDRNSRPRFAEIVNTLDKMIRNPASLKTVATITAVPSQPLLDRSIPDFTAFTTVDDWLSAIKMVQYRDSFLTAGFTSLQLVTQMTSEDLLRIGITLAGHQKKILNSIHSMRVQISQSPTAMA
Kind of experiment: Selectivity interaction (KinomeScan (DiscoverX)) EUB0000092b EPHB1. The settings on record: at 10 µM.

Experiment [7] has as its target Maternal embryonic leucine zipper kinase (Homo sapiens) (UniProt Q14680). Kind of experiment: Selectivity interaction (Kinase panel (DSF assay)) EUB0001559a MELK.

Cyclin-dependent kinase 7, sequence (P50613 whole entry, canonical isoform): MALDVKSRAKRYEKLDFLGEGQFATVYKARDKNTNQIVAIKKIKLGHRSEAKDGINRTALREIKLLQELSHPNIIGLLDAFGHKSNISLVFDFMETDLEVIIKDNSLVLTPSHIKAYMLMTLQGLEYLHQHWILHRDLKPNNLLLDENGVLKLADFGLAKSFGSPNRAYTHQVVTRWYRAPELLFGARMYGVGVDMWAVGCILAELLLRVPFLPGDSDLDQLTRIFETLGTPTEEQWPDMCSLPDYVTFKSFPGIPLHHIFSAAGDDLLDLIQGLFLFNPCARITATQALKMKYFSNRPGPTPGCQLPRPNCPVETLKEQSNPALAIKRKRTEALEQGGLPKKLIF
Ribosomal protein S6 kinase alpha-6, sequence (Q9UK32 whole entry): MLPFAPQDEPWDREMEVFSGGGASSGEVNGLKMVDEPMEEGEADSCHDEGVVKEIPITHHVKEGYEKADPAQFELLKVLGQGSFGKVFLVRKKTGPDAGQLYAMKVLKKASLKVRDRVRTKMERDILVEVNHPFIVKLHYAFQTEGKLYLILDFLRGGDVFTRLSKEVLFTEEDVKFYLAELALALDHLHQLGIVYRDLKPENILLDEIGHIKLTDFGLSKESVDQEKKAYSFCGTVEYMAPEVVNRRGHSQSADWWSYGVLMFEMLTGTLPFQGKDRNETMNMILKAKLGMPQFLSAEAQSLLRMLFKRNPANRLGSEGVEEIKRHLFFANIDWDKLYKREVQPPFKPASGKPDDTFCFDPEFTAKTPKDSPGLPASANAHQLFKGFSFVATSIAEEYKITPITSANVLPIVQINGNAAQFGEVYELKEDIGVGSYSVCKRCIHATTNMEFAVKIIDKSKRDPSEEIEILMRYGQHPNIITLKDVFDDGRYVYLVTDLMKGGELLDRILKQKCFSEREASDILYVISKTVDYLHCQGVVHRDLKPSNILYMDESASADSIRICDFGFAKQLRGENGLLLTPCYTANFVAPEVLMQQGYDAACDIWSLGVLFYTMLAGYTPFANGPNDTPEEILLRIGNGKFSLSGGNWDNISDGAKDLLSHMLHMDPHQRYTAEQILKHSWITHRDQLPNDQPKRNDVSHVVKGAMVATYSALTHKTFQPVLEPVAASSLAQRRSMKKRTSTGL
Casein kinase I isoform delta, sequence (P48730 whole entry, looked up, canonical isoform): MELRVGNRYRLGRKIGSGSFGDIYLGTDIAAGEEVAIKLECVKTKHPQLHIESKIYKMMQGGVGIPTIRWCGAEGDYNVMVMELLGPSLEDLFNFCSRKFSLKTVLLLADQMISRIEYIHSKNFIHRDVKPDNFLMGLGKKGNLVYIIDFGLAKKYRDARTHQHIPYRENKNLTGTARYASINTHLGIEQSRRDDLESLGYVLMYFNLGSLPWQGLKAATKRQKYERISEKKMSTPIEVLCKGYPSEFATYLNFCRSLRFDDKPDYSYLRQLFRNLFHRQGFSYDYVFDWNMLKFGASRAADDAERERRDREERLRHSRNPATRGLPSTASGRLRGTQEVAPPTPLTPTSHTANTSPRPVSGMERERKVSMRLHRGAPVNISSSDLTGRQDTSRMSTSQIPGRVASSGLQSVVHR
Maternal embryonic leucine zipper kinase (Homo sapiens), sequence (Q14680 whole entry, looked up): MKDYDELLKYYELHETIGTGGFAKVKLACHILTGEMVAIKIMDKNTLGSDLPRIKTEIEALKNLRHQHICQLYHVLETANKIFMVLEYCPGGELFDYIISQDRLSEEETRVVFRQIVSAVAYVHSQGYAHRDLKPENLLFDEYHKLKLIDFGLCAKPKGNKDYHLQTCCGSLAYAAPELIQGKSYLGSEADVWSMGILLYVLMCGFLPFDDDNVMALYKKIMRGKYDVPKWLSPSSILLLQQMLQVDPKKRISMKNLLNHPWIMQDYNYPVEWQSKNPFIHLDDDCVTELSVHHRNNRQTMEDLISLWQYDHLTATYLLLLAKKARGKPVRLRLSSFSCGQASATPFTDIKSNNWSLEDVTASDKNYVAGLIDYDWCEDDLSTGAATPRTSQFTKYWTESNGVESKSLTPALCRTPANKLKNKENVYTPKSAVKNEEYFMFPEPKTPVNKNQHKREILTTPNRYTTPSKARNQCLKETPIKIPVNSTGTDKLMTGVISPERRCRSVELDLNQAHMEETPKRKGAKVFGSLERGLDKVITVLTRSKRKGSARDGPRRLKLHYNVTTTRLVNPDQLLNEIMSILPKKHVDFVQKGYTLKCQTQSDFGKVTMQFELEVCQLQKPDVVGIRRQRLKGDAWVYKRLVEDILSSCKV
Mitogen-activated protein kinase kinase kinase 11 (Homo sapiens), sequence (Q16584 whole entry, looked up): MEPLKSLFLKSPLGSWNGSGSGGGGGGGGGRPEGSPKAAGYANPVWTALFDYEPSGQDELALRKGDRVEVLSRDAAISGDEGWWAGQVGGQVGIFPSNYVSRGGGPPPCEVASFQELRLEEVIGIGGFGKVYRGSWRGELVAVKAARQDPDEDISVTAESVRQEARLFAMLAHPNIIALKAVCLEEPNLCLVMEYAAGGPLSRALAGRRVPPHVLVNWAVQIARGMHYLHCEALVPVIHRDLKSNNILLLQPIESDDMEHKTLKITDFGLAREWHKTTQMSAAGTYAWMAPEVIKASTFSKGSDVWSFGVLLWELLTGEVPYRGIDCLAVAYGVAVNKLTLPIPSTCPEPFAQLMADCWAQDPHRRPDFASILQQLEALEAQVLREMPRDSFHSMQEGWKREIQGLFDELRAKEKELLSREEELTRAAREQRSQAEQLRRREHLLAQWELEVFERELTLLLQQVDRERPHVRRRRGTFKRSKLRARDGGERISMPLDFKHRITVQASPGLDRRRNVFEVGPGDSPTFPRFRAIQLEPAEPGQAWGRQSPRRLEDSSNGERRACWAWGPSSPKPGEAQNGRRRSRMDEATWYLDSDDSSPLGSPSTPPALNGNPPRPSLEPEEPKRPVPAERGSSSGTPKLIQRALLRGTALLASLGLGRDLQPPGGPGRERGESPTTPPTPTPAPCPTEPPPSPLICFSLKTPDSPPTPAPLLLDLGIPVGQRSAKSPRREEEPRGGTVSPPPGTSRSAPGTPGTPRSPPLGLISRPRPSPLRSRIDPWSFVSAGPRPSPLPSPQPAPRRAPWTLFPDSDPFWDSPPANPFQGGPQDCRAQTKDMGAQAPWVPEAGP

For the compound `Cn1cc(-n2cnc3c(NCc4nc5cc(Cl)c(Cl)cc5[nH]4)nc(N4CCOCC4)nc32)cn1`, the % of inhibition in experiment [1] is -0.811%.

Take `Nc1cnc(N2CCc3cc(S(=O)(=O)Nc4c(F)cc(Cl)cc4F)cc(N4CCCC4=O)c32)nc1` [TP-020n]: the % of control in experiment [2] turned out to be 100%.

Consider `CC[C@@H]1[C@H](F)C(=O)N[C@@H]1COc1nccc2cc(C(N)=O)c(OC)cc12` [ZIMLOVISERTIB], for which the % of inhibition in experiment [3] stood at 44.8%.

In experiment [4], `CC(=O)Nc1cccc(-n2c(=O)n(C3CC3)c(=O)c3c(Nc4ccc(I)cc4F)n(C)c(=O)c(C)c32)c1` displayed a % of control of 105%.

`Cc1cc(F)c(C(=O)Nc2cccc(-c3nncn3C(C)C)n2)cc1-n1cnc(C2CC2)c1` yielded a % of control in experiment [5] of 22%.

On to `CCC(=O)N1CCN(c2ccc(-n3c(=O)ccc4cnc5ccc(-c6cnc7ccccc7c6)cc5c43)cc2C(F)(F)F)CC1`, for which the % of control in experiment [6] turned out to be 100%.

`CN(C(=O)c1cnn2cccnc12)c1cc2c(cc1N1CCOCC1)C(=O)N(C[C@@H](F)C(C)(C)O)C2`: the dTM in experiment [7] was -0.3 K.
